From US20070142396A1, “Treatment of pain with 1-[3-[4-(3-chlorophenyl)-1-piperazinyl]propyl]-5-methoxy-3,4-dihydro-2(1H)-quinolone or salt thereof” (Vela Pharmaceuticals, Inc., priority 2005, published 2007)

Tested on: rats with L5 spinal nerve ligation (SNL model)
Test: Spinal nerve ligation (L5) neuropathic pain model, von Frey filaments, dose range (Example 5)
Type: in vivo, rat
From the text: The spinal nerve ligation (SNL) model of neuropathic pain was produced in all rats as described by Kim and Chung (Pain, 50, 355-363, 1992). Briefly, under gaseous anesthesia using halothane (3% for induction and 1.5% for maintenance) in oxygen, the left L5 spinal nerve was exposed by removing the paraspinal muscles and the transverse process of the L6 vertebra. The very proximal portion of the L5 spinal nerve was tightly ligated with 6-0 silk suture. The wounds were closed and anesthesia was discontinued. Rats were kept on a heated blanket until they had completely recovered from anesthesia.
Behavioral tests were conducted in a non-blind fashion. The foot withdrawal threshold to mechanical stimuli applied to the paw (mechanical threshold) was measured, as an indicator of mechanical sensitivity of the affected paw. The foot withdrawal threshold was measured using von Frey filaments. It is generally thought that von Frey filaments are more sensitive than electronic von Frey probes for measuring tactile stimulation. The mechanical thresholds were measured by using the “up-and-down” method (Chaplan et al., J. Neurosci. Methods 53(1):55-63, 1994), following the procedures described in previous studies (Park et al., Pain 87(2):171-179, 2000; Xie et al., J. Pain 2(5):270-278, 2001; Baik et al., J. Pain 4:212-221, 2003). In brief, rats were placed in a transparent plastic box on a metal wire mesh floor. To determine the threshold stiffness required for 50% paw withdrawal, a series of eight von Frey filaments with approximately equal logarithmic incremental (0.22) von Frey values (3.65, 3.87, 4.10, 4.31, 4.52, 4.74, 4.92, and 5.16) were used. Von Frey (VF) values are logarithmically related to gram (g) values (VF=log (10,000×g)). The chosen von Frey values are therefore equivalent to 0.45, 0.74, 1.26, 2.04, 3.31, 5.50, 8.32, and 14.45 in gram value, respectively. Starting with filament 4.31, von Frey filaments were applied perpendicularly to the ventral surface of the proximal part of the third or fourth toe for 2-3 seconds. Whenever a positive response to a stimulus occurred (paw withdrawal), the next smaller von Frey hair was applied. Whenever a negative response occurred, the next larger one was applied. The test was continued until the response of six stimuli after the first change in response had been obtained or the test had reached either end of the spectrum of the von Frey set.
The 50% threshold value was then calculated using Dixon's formula (Dixon, Ann. Rev. Phar. Tox. 20:441-462, 1980): 50% threshold=X+kd, where X is the value of the final von Frey hair used (in log units), k is the tabular value for the pattern of positive/negative responses, and d is the mean difference between stimuli in log units (0.22). In the cases where continuous positive or negative responses were observed all the way out to the end of the stimulus spectrum, values of 3.54 or 5.27 were assigned, respectively, by assuming a value of (−/+) 0.5 for k in these cases (Dixon, supra, 1980). Outcome of behavioral data were expressed as von Frey values (maximum range from 3.54 to 5.27) and plotted in a linear scale.
Data were expressed as the mean±standard errors of mean (SEM). Differences in mechanical thresholds at various times after injections were tested using two-way (time and group factors) analysis of variance (ANOVA), followed by the Duncan's post-hoc test for multiple comparisons. Statistical analyses were done using the SAS® software program (SAS Institute Inc, Cary, N.C.). Two-tailed p-values<0.05 were considered to be significant.
This experiment was conducted on 8 rats in a Latin-square design examining a dose response of OPC-14523. Gabapentin was prepared at 10 mg/ml in 0.5% tragacanth and administered at 100 mg/kg p.o. Behavioral tests were conducted in a blind fashion twice (1 day and 1 hour) before as well as 1 and 4 days after the neuropathic surgery. […] These 8 rats were randomly divided into 6 groups of 1-2 rats. […]

In the case of `COc1cccc2c1CCC(=O)N2CCCN1CCN(c2cccc(Cl)c2)CC1` [OPC-14523, 1-[3-[4-(3-chlorophenyl)-1-piperazinyl]propyl]-5-methoxy-3,4-dihydro-2(1H)-quinolone], the “effect on mechanical threshold” value (10 mg/kg oral) is reported as “neither vehicle nor OPC-14523 at 10 mg/kg produced significant changes”, the “effect on mechanical threshold” value (30 mg/kg oral) is reported as “statistically significant increase” and the “level of response compared with gabapentin 100 mg/kg p.o.” value (30 mg/kg oral) is reported as “comparable to that of gabapentin”. For the same compound, the “effect on mechanical threshold” value (60 mg/kg oral) was “statistically significant increase”, the “level of response compared with gabapentin 100 mg/kg p.o.” value (60 mg/kg oral) was “comparable to that of gabapentin” and the “effect on mechanical threshold” value (100 mg/kg oral) was “statistically significant increase”. For the same compound, the “level of mechanical threshold reached” value (100 mg/kg oral, exceeding the response induced by gabapentin) was “about the level observed prior to the ligature surgery”.
